The values that follow come from US12459922B2 (Gilead Sciences, Inc., priority 2022, dated 2025).

As usually defined, the EC50 is the concentration needed to bring the measured effect to its halfway point.

The test system of this assay is endogenous cellular STAT1 (phosphorylated at Tyr701) in NCI-H1373 cells. Nature of the assay: Phospho-STAT1 (Tyr701) LANCE Ultra TR-FRET Detection Assay. Format: cell-based. The conditions noted are these: Homo sapiens, NCI-H1373, 48 h, phospho-STAT1 (Tyr701) induction, read-out: NH1373 pSTAT1 EC50. (In TR-FRET formats the signal depends on donor and acceptor labels being close together.)

Molecules are shown by their SMILES.

Turning to `O=c1[nH]ncc(N[C@H]2CCC[C@@H](Cn3ccc4cc(-c5cnc(C6CC6)cn5)c(F)cc4c3=O)C2)c1C(F)(F)F` [Example 270, 6-(5-cyclopropylpyrazin-2-yl)-7-fluoro-2-(((1R,3S)-3-((6-oxo-5-(trifluoromethyl)-1,6-dihydropyridazin-4-yl)amino)cyclohexyl)methyl)isoquinolin-1(2H)-one], the EC50 amounted to 149 nM.

For the compound `O=c1[nH]ncc(N[C@H]2CCC[C@@H](Cn3c(=O)[nH]c4cc(-c5ncc(C(F)(F)F)cn5)c(F)cc4c3=O)C2)c1C(F)(F)F` [Example 281, 6-fluoro-3-(((1R,3S)-3-((6-oxo-5-(trifluoromethyl)-1,6-dihydropyridazin-4-yl)amino)cyclohexyl)methyl)-7-(5-(trifluoromethyl)pyrimidin-2-yl)quinazoline-2,4(1H,3H)-dione], the 50% effective concentration (EC50) was found to be 2.87 nM.

Regarding `Nc1nc(-c2cc3ccn(C[C@@H]4CCC[C@H](Nc5cn[nH]c(=O)c5C(F)(F)F)C4)c(=O)c3cc2F)ncc1OC(F)F` [Example 260, 6-(4-amino-5-(difluoromethoxy)pyrimidin-2-yl)-7-fluoro-2-(((1R,3S)-3-((6-oxo-5-(trifluoromethyl)-1,6-dihydropyridazin-4-yl)amino)cyclohexyl)methyl)isoquinolin-1(2H)-one], the EC50 came out at 12.7 nM.

As to `N#Cc1cnc(-c2cc3ccn(CCC[C@@H](Nc4cn[nH]c(=O)c4C(F)(F)F)C4CC4)c(=O)c3cc2F)nc1N` [Example 145, 4-amino-2-[2-[(4R)-4-cyclopropyl-4-[[6-oxo-5-(trifluoromethyl)-1H-pyridazin-4-yl]amino]butyl]-7-fluoro-1-oxoisoquinolin-6-yl]pyrimidine-5-carbonitrile], the EC50 was 14.1 nM.

Turning to `O=c1[nH]ncc(N[C@H]2CCC[C@@H](Cn3ccc4cc(-c5nccc(C(F)(F)F)n5)c(F)cc4c3=O)C2)c1C(F)(F)F` [Example 272, 7-fluoro-2-(((1R,3S)-3-((6-oxo-5-(trifluoromethyl)-1,6-dihydropyridazin-4-yl)amino)cyclohexyl)methyl)-6-(4-(trifluoromethyl)pyrimidin-2-yl)isoquinolin-1(2H)-one], the EC50 worked out at 10000 nM.

Take `Nc1cn(C[C@@H]2CCC[C@H](Nc3cn[nH]c(=O)c3C(F)(F)F)C2)c(=O)c2cc(F)c(-c3ncc(C(F)(F)F)cn3)cc12` [Example 486, 4-amino-7-fluoro-2-(((1R,3S)-3-((6-oxo-5-(trifluoromethyl)-1,6-dihydropyridazin-4-yl)amino)cyclohexyl)methyl)-6-(5-(trifluoromethyl)pyrimidin-2-yl)isoquinolin-1(2H)-one]: the EC50 amounted to 95.8 nM.

As to `CC[C@@H](CCCn1ccc2cc(-c3ncc(Cl)c(N)n3)c(F)c(F)c2c1=O)Nc1cn[nH]c(=O)c1C(F)(F)F` [Example 359, (S)-6-(4-amino-5-chloropyrimidin-2-yl)-7,8-difluoro-2-(4-((6-oxo-5-(trifluoromethyl)-1,6-dihydropyridazin-4-yl)amino)hexyl)isoquinolin-1(2H)-one], the EC50 stood at 1.15 nM.

On to `C[C@@H](CCCn1ccc2cc(-c3nc(C(F)(F)F)co3)c(F)cc2c1=O)Nc1cn[nH]c(=O)c1C(F)(F)F` [Example 323, (S)-7-fluoro-2-(4-((6-oxo-5-(trifluoromethyl)-1,6-dihydropyridazin-4-yl)amino)pentyl)-6-(4-(trifluoromethyl)oxazol-2-yl)isoquinolin-1(2H)-one], for which the concentration for a half-maximal effect (EC50) turned out to be 260 nM.

On to `[2H]C([2H])([2H])OC[C@@H](CCCn1cnc2cc(-c3ncc(C(F)F)c(N)n3)c(F)cc2c1=O)Nc1cn[nH]c(=O)c1C(F)(F)F` [Example 433], for which the concentration for a half-maximal effect (EC50) was found to be 15.6 nM.

On to `O=c1[nH]ncc(N[C@H](CCCn2cnc3cc(-c4ncc(C(F)F)cn4)c(F)cc3c2=O)COC(F)F)c1C(F)(F)F` [Example 384, (R)-3-(5-(difluoromethoxy)-4-((6-oxo-5-(trifluoromethyl)-1,6-dihydropyridazin-4-yl)amino)pentyl)-7-(5-(difluoromethyl)pyrimidin-2-yl)-6-fluoroquinazolin-4(3H)-one], for which the EC50 was 2.41 nM.

With `C[C@@H](CCCn1cnc2cc(-c3ncc4c(F)c[nH]c4n3)c(F)cc2c1=O)Nc1cn[nH]c(=O)c1C(F)(F)F` [Example 64, 6-fluoro-7-(5-fluoro-7H-pyrrolo[2,3-d]pyrimidin-2-yl)-3-[(4S)-4-[[6-oxo-5-(trifluoromethyl)-1H-pyridazin-4-yl]amino]pentyl]quinazolin-4-one], the EC50 is 37.3 nM.

As for `Cc1cn(C[C@@H]2CCC[C@H](Nc3cn[nH]c(=O)c3C(F)(F)F)C2)c(=O)c2cc(F)c(-c3ncc(C(F)(F)F)cn3)cc12` [Example 485, 7-fluoro-4-methyl-2-(((1R,3S)-3-((6-oxo-5-(trifluoromethyl)-1,6-dihydropyridazin-4-yl)amino)cyclohexyl)methyl)-6-(5-(trifluoromethyl)pyrimidin-2-yl)isoquinolin-1(2H)-one], the EC50 amounted to 5.46 nM.

As for `C[C@@H](CCCn1cnc2cc(-c3ncc(C(F)(F)F)c(N4CCOCC4)n3)c(F)cc2c1=O)Nc1cn[nH]c(=O)c1C(F)(F)F` [Example 201, (S)-6-fluoro-7-(4-morpholino-5-(trifluoromethyl)pyrimidin-2-yl)-3-(4-((6-oxo-5-(trifluoromethyl)-1,6-dihydropyridazin-4-yl)amino)pentyl)quinazolin-4(3H)-one], the EC50 was 4.03 nM.

Take `COc1cnc(-c2cc3ccn(CCC[C@H](C)Nc4cn[nH]c(=O)c4C(F)(F)F)c(=O)c3cc2F)nc1N1CC(O)C1` [Example 207]: the EC50 came to 157 nM.

Consider `O=c1[nH]ncc(N[C@H]2CCC[C@@H](Cn3cnc4cc(-c5ncc(C(F)(F)F)c(Br)n5)c(F)cc4c3=O)C2)c1C(F)(F)F` [Example 458, 7-(4-bromo-5-(trifluoromethyl)pyrimidin-2-yl)-6-fluoro-3-(((1R,3S)-3-((6-oxo-5-(trifluoromethyl)-1,6-dihydropyridazin-4-yl)amino)cyclohexyl)methyl)quinazolin-4(3H)-one], for which the EC50 was 2940 nM.

Turning to `O=c1[nH]ncc(N[C@H](CCCn2ccc3cc(-c4ccc(C(F)F)cn4)c(F)cc3c2=O)COC(F)F)c1C(F)(F)F` [Example 401, (R)-2-(5-(difluoromethoxy)-4-((6-oxo-5-(trifluoromethyl)-1,6-dihydropyridazin-4-yl)amino)pentyl)-6-(5-(difluoromethyl)pyridin-2-yl)-7-fluoroisoquinolin-1(2H)-one], the EC50 was determined as 1.63 nM.

With `COc1cnc(-c2cc3ncn(CCC[C@H](C)Nc4cn[nH]c(=O)c4C(F)(F)F)c(=O)c3cc2F)nc1N1CC(O)(C(F)(F)F)C1` [Example 287, (S)-6-fluoro-7-(4-(3-hydroxy-3-(trifluoromethyl)azetidin-1-yl)-5-methoxypyrimidin-2-yl)-3-(4-((6-oxo-5-(trifluoromethyl)-1,6-dihydropyridazin-4-yl)amino)pentyl)quinazolin-4(3H)-one], the 50% effective concentration (EC50) was found to be 137 nM.

Regarding `C[C@@H](CCCn1cnc2cc(-c3ncc4cc[nH]c4n3)c(F)cc2c1=O)Nc1cn[nH]c(=O)c1C(F)(F)F` [Example 62, 6-fluoro-3-[(4S)-4-[[6-oxo-5-(trifluoromethyl)-1H-pyridazin-4-yl]amino]pentyl]-7-(7H-pyrrolo[2,3-d]pyrimidin-2-yl)quinazolin-4-one], the EC50 amounted to 31.3 nM.

With `C[C@@H](CC(O)Cn1ccc2cc(-c3ncc(C(F)(F)F)cn3)c(F)cc2c1=O)Nc1cn[nH]c(=O)c1C(F)(F)F` (stereo partly drawn) [Example 478, 7-fluoro-2-[(4S)-2-hydroxy-4-[[6-oxo-5-(trifluoromethyl)-1H-pyridazin-4-yl]amino]pentyl]-6-[5-(trifluoromethyl)pyrimidin-2-yl]isoquinolin-1-one], the EC50 is 5.25 nM.

As for `C[C@@H](CCCn1ccc2cc(-c3cnc(C(F)(F)F)c(N)n3)c(F)c(F)c2c1=O)Nc1cn[nH]c(=O)c1C(F)(F)F` [Example 349, (S)-6-(6-amino-5-(trifluoromethyl)pyrazin-2-yl)-7,8-difluoro-2-(4-((6-oxo-5-(trifluoromethyl)-1,6-dihydropyridazin-4-yl)amino)pentyl)isoquinolin-1(2H)-one], the EC50 came to 11.8 nM.

Turning to `O=c1[nH]ncc(N[C@H]2CCC[C@@H](Cn3cnc4cc(-c5ncc(C(F)(F)F)cn5)c(F)cc4c3=O)C2)c1C(F)(F)F` [Example 235], the concentration giving a half-maximal response (EC50) was 4.38 nM.

Take `Cc1nc(-c2cc3ccn(CCC[C@H](C)Nc4cn[nH]c(=O)c4C(F)(F)F)c(=O)c3cc2F)nc(N)c1Cl` [Example 319, (S)-6-(4-amino-5-chloro-6-methylpyrimidin-2-yl)-7-fluoro-2-(4-((6-oxo-5-(trifluoromethyl)-1,6-dihydropyridazin-4-yl)amino)pentyl)isoquinolin-1(2H)-one]: the EC50 is 2.92 nM.

Regarding `C[C@H](Nc1cn[nH]c(=O)c1C(F)(F)F)[C@@H](O)CCn1ccc2cc(-c3ncc(C(F)(F)F)cn3)c(F)cc2c1=O` [Example 442, 7-fluoro-2-((3S,4S)-3-hydroxy-4-((6-oxo-5-(trifluoromethyl)-1,6-dihydropyridazin-4-yl)amino)pentyl)-6-(5-(trifluoromethyl)pyrimidin-2-yl)isoquinolin-1(2H)-one], the concentration giving a half-maximal response (EC50) was determined as 1850 nM.

`CC[C@@H](CCCn1ccc2cc(-c3ncc(C(F)F)cn3)c(F)c(F)c2c1=O)Nc1cn[nH]c(=O)c1C(F)(F)F` [Example 355, (S)-6-(5-(difluoromethyl)pyrimidin-2-yl)-7,8-difluoro-2-(4-((6-oxo-5-(trifluoromethyl)-1,6-dihydropyridazin-4-yl)amino)hexyl)isoquinolin-1(2H)-one]: the EC50 amounted to 11.4 nM.

As for `C[C@@H](CCCn1ccc2cc(-c3ncc(Cl)c(N)n3)c(F)c(F)c2c1=O)Nc1cn[nH]c(=O)c1C(F)(F)F` [Example 341, (S)-6-(4-amino-5-chloropyrimidin-2-yl)-7,8-difluoro-2-(4-((6-oxo-5-(trifluoromethyl)-1,6-dihydropyridazin-4-yl)amino)pentyl)isoquinolin-1(2H)-one], the concentration giving a half-maximal response (EC50) is 1.95 nM.

As to `O=c1[nH]ncc(N[C@H]2CCC[C@@H](Cn3ccc4cc(-c5ccc(Cl)cn5)c(F)cc4c3=O)C2)c1C(F)(F)F` [Example 280, 6-(5-chloropyridin-2-yl)-7-fluoro-2-(((1R,3S)-3-((6-oxo-5-(trifluoromethyl)-1,6-dihydropyridazin-4-yl)amino)cyclohexyl)methyl)isoquinolin-1(2H)-one], the EC50 came to 34.8 nM.
